From patent publication US12145939B2, “Substituted [1,2,4]triazolo[4,3-a]pyrazines as ion channel modulators” (PRAXIS PRECISION MEDICINES, INC., priority 2019, dated 2024)

target: T1, human NaV1.6 (hNaV1.6) (Homo sapiens, UniProt Q9UQD0); experiment: Modulation of late sodium current (INaL) at hNaV1.6, PatchXpress electrophysiology; assay type: cell-based; settings: HEK293, HEK-293 cells expressing recombinant human NaV 1.6, late current evoked by 300 nM ATX-II, read-out: NaV 1.6 Assay Data (percent inhibition of INaL at hNaV1.6)
T1 construct: expressed in transfected cells; host or cells: HEK-293
T1 sequence (Q9UQD0 whole entry): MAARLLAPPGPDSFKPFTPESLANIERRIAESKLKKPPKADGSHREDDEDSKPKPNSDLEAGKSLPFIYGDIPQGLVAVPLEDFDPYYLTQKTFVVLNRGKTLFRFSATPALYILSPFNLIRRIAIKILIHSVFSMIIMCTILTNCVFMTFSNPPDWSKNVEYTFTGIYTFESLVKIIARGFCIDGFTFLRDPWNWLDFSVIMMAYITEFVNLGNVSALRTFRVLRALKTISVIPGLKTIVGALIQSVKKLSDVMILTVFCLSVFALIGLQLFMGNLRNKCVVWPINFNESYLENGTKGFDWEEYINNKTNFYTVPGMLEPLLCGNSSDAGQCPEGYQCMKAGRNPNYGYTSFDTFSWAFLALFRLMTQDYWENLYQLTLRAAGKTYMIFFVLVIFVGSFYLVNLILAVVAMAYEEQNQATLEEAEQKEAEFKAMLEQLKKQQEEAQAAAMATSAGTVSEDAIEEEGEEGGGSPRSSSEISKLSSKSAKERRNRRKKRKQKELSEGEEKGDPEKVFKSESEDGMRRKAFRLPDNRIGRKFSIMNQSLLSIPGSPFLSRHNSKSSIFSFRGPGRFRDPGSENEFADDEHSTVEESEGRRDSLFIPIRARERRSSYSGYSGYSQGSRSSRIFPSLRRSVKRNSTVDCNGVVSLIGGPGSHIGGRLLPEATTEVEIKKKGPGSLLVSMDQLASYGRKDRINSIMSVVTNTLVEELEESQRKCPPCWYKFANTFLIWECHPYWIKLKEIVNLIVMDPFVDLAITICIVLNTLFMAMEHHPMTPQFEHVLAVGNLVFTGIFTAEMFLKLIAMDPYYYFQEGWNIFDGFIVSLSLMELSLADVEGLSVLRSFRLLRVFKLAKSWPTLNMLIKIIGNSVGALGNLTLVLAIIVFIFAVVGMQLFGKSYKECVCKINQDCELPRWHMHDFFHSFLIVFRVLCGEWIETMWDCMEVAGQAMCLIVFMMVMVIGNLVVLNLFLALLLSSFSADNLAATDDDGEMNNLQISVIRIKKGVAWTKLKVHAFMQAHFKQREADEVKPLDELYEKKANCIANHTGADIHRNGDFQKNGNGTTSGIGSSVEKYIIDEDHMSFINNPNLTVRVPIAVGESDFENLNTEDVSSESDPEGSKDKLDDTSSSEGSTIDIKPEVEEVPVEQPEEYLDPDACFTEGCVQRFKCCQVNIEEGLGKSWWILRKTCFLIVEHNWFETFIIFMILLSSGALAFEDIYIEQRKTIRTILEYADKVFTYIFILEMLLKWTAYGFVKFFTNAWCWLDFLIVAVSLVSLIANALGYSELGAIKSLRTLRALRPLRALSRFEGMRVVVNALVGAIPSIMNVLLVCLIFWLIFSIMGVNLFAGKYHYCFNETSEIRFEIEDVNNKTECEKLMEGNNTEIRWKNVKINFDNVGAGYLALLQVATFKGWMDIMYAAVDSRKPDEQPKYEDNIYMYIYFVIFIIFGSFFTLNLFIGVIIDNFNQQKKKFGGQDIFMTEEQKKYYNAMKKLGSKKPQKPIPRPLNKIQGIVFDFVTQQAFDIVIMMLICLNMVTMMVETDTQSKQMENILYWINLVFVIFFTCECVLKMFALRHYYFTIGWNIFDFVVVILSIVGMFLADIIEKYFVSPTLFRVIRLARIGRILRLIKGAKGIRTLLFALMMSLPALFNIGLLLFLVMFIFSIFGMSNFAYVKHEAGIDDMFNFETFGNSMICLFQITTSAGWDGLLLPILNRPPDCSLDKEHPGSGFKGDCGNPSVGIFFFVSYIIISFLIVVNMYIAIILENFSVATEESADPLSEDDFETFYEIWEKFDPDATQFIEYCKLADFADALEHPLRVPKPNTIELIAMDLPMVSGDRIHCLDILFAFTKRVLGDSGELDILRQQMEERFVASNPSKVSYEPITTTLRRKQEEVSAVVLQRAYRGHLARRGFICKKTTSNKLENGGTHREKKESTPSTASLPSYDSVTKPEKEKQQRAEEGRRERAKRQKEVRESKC
Method: Functional characterization of exemplary compounds to modulate INaL expressed by the NaV1.6 voltage-gated sodium channel was accomplished using the PatchXpress™ high throughput electrophysiology platform (Molecular Devices, Sunnyvale, CA). HEK-293 cells expressing recombinant, human NaV1.6 (hNaV1.6) were grown in DMEM/high-glucose Dulbecco's modified, 10% FBS, 2 mM sodium pyruvate, 10 mM HEPES and 400 μg/mL G418. Cells were grown to 50%-80% confluency prior to harvesting. Trypsinized cells were washed, allowed to recover for 1 hour and then resuspended in extracellular recording solution at a concentration of 1×10^6 cells/ml. The onboard liquid handling facility of the PatchXpress was used for dispensing cells and applying test compounds. NaV late currents were evoked by the application of 300 nM ATX-II. INaL was evoked by depolarizing pulses to 0 mV for 200 ms from a non-inactivating holding potential (e.g., −120 mV) at a frequency of 0.1 Hz. INaL amplitude and stability were determined by analyzing the mean current amplitude over the final 20 ms of the test pulse. Following steady state block with exemplary compounds (e.g., as described herein), a Na+ free solution containing an impermeant cation (e.g., Choline or NDMG) was added to confirm the identity of the sodium current. Percent steady-state inhibition of INaL was calculated as: […], where INaL_compound and INaL_control represent INaL recorded in the presence or absence of compound, respectively.
Results from this assay relating to percent inhibition of INaL at hNaV1.6 (measured using a procedure similar to described above but using HEK-293 cells expressing recombinant, human NaV 1.6 (h NaV 1.6) at 1 μM are summarized in Table 1 below. In this table, “A” indicates inhibition of less than 30%; “B” indicates inhibition of between about 30% to about 70%; and “C” indicates inhibition of greater than 70%. “N/A” indicates not available.

| Compound | inhibition at 1 µM |
| --- | --- |
| CO[C@@H](C)c1nnc2cnc(-c3cnc(OC4(C(F)(F)F)CCC4)c(F)c3)cn12 (single isomer, unassigned) [Compound I-4] | 30 to 70% |
| COC(C)(C)c1nnc2cnc(-c3cnc(OCC(F)(F)F)c(F)c3)cn12 [Compound II-4, 6-(5-fluoro-6-(2,2,2-trifluoroethoxy)pyridin-3-yl)-3-(2-methoxypropan-2-yl)-[1,2,4]triazolo[4,3-a]pyrazine] | < 30% |
| COC1(c2nnc3cnc(-c4cnc(O[C@@H](C)C(F)(F)F)c(F)c4)cn23)CC1 [Compound II-3, (S)-6-(5-fluoro-6-((1,1,1-trifluoropropan-2-yl)oxy)pyridin-3-yl)-3-(1-methoxycyclopropyl)-[1,2,4]triazolo[4,3-a]pyrazine] | 30 to 70% |
| CCO[C@H](C)c1nnc2cnc(-c3ccc(OC4(C(F)(F)F)CCC4)nc3)cn12 [Compound I-20, (R)-3-(1-ethoxyethyl)-6-(6-(1-(trifluoromethyl)cyclobutoxy)pyridin-3-yl)-[1,2,4]triazolo[4,3-a]pyrazine] | 30 to 70% |
| CCO[C@H](C)c1nnc2cnc(-c3cnc(OC4(C(F)(F)F)CCC4)c(F)c3)cn12 [Compound I-14, (R)-3-(1-ethoxyethyl)-6-(5-fluoro-6-(1-(trifluoromethyl)cyclobutoxy)pyridin-3-yl)-[1,2,4]triazolo[4,3-a]pyrazine] | 30 to 70% |
| COC(C)(C)c1nnc2cnc(-c3ccc(OC(C)C(F)(F)F)nc3)cn12 (racemic) [Compound II-6, 3-(1-methoxy-1-methyl-ethyl)-6-[6-[rac-(1R)-2,2,2-trifluoro-1-methyl-ethoxy]-3-pyridyl]-[1,2,4]triazolo[4,3-a]pyrazine] | < 30% |
| CO[C@H](C)c1nnc2cnc(-c3ccc(O[C@@H](C4CC4)C(F)(F)F)nc3)cn12 (single isomer, unassigned) [Compound I-22] | < 30% |
| CO[C@H](C)c1nnc2cnc(-c3cnc(O[C@H](C4CC4)C(F)(F)F)c(F)c3)cn12 (single isomer, unassigned) [Compound I-15] | 30 to 70% |
| CO[C@H](C)c1nnc2cnc(-c3ccc(OC4(C(F)(F)F)CCC4)nc3)cn12 (single isomer, unassigned) [Compound I-6] | 30 to 70% |
| COC(C)(C)c1nnc2cnc(-c3ccc(OC(C)(C)C(F)(F)F)nc3)cn12 [Compound II-14, 3-(1-methoxy-1-methyl-ethyl)-6-[6-(2,2,2-trifluoro-1,1-dimethyl-ethoxy)-3-pyridyl]-[1,2,4]triazolo[4,3-a]pyrazine] | 30 to 70% |
| CO[C@@H](C)c1nnc2cnc(-c3cnc(O[C@@H](C4CC4)C(F)(F)F)c(F)c3)cn12 (single isomer, unassigned) [Compound I-18] | 30 to 70% |
| COC1(c2nnc3cnc(-c4cnc(OCC(F)(F)F)c(F)c4)cn23)CC1 [Compound II-1, 6-(5-fluoro-6-(2,2,2-trifluoroethoxy)pyridin-3-yl)-3-(1-methoxycyclopropyl)-[1,2,4]triazolo[4,3-a]pyrazine] | < 30% |

Other lines, results leading:

| inhibition at 1 µM | Compound |
| --- | --- |
| > 70% | COC(F)(F)c1nnc2cnc(-c3ccc([C@H]4CC4(F)F)cc3C)cn12 (single isomer, unassigned) [Compound III-7] |
| 30 to 70% | COC(F)(F)c1nnc2cnc(-c3ccc(COCC(F)(F)F)cc3C)cn12 [Compound III-6, 3-[difluoro(methoxy)methyl]-6-[2-methyl-4-(2,2,2-trifluoroethoxymethyl)phenyl]-[1,2,4]triazolo[4,3-a]pyrazine] |
| 30 to 70% | COC(F)(F)c1nnc2cnc(-c3ccc([C@H]4CC4(F)F)cc3)cn12 (single isomer, unassigned) [Compound III-4] |
| 30 to 70% | CCOC(F)(F)c1nnc2cnc(-c3ccc([C@H](C)OCC(F)(F)F)cc3)cn12 (single isomer, unassigned) [Compound III-20] |
| < 30% | COC(F)(F)c1nnc2cnc(-c3ccc([C@@H](C)OCC(F)(F)F)cc3)cn12 (single isomer, unassigned) [Compound III-17] |
